These are literature values, as cited in patent US12649947B2, “Method of treatment using genetic predictors of a response to treatment with CRHR1 antagonists” (HMNC Holding GmbH, priority 2015, dated 2026).

In this data set the test system is mice overexpressing CRH in the forebrain.

As for `COCC(COC)Nc1nc(C)nc2c(-c3ccc(Cl)cc3Cl)c(C)nn12` [DMP696], the “effect on REM sleep enhancement” value was “could reverse the REM enhancement”.
